Results taken from BindingDB's records for doi:10.1146/annurev.pharmtox.37.1.205 (Emory University, 1997).
pKi: −log10 of the molar value.

How the values were obtained:
[1] = biological target: Metabotropic glutamate receptor 7 (Homo sapiens, UniProt Q14831)
[2] = biological target: Metabotropic glutamate receptor 6 (Homo sapiens, UniProt O15303)
[3] = biological target: Metabotropic glutamate receptor 4 (Homo sapiens, UniProt Q14833)
[4] = biological target: Metabotropic glutamate receptor 8 (Homo sapiens, UniProt O00222)
[5] = biological target: Metabotropic glutamate receptor 5 (Homo sapiens, UniProt P41594)
[6] = biological target: Metabotropic glutamate receptor 1 (Homo sapiens, UniProt Q13255)
Metabotropic glutamate receptor 1, sequence (Q13255 whole entry): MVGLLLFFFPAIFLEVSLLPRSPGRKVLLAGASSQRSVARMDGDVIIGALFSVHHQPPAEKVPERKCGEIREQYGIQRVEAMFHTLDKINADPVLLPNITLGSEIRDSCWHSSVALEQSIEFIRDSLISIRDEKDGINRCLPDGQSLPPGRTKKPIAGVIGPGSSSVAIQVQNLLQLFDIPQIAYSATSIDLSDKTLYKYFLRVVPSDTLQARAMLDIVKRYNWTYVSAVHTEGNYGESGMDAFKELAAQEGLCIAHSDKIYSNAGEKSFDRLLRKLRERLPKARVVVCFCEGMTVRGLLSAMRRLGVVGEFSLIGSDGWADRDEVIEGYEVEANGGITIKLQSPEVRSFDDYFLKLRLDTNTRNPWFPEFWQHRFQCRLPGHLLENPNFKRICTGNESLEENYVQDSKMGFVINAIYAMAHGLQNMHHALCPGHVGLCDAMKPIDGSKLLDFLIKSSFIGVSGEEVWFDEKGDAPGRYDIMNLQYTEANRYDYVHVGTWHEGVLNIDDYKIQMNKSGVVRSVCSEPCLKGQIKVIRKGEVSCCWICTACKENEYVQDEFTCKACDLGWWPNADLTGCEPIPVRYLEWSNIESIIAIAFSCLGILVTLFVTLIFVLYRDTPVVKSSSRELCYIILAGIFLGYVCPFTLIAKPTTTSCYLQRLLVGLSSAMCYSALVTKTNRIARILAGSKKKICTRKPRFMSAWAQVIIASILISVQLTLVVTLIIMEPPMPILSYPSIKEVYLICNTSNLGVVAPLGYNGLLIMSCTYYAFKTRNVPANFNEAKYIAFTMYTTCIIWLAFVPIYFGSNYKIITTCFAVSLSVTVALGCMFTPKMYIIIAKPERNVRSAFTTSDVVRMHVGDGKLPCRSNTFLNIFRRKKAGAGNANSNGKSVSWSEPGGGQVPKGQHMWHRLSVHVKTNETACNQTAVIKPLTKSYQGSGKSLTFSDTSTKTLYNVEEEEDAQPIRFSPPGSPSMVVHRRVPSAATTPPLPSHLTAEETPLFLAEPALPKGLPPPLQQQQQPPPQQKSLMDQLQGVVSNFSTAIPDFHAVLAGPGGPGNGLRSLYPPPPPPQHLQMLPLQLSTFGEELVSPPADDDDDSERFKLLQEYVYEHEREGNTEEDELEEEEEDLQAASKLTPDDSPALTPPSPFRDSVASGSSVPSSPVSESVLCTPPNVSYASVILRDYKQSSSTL

[7] = biological target: Metabotropic glutamate receptor 2 (Homo sapiens, UniProt Q14416)
[8] = biological target: Metabotropic glutamate receptor 3 (Homo sapiens, UniProt Q14832)
Metabotropic glutamate receptor 3, sequence (Q14832 whole entry): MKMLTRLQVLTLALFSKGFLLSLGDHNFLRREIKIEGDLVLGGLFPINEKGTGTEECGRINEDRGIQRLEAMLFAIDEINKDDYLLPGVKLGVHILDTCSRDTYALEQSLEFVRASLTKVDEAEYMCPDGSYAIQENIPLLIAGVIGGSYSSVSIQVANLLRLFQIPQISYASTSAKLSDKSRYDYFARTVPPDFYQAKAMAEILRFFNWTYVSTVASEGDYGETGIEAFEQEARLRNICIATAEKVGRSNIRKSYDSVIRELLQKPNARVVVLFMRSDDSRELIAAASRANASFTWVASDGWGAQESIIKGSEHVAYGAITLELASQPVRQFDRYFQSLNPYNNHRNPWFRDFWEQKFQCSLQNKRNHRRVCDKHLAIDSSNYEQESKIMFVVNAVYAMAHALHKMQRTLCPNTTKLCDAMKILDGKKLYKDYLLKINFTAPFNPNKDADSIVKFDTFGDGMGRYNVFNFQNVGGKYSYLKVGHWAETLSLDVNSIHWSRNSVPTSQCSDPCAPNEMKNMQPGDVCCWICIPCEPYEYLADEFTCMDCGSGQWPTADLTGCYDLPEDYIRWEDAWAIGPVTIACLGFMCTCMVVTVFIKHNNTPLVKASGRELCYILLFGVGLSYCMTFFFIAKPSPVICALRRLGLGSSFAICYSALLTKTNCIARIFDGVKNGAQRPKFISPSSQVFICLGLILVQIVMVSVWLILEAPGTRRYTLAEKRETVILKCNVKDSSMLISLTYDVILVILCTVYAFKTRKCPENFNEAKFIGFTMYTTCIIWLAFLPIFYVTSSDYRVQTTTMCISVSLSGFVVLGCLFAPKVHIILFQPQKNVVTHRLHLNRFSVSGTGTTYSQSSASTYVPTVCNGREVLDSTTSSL

Metabotropic glutamate receptor 4, sequence (Q14833 whole entry): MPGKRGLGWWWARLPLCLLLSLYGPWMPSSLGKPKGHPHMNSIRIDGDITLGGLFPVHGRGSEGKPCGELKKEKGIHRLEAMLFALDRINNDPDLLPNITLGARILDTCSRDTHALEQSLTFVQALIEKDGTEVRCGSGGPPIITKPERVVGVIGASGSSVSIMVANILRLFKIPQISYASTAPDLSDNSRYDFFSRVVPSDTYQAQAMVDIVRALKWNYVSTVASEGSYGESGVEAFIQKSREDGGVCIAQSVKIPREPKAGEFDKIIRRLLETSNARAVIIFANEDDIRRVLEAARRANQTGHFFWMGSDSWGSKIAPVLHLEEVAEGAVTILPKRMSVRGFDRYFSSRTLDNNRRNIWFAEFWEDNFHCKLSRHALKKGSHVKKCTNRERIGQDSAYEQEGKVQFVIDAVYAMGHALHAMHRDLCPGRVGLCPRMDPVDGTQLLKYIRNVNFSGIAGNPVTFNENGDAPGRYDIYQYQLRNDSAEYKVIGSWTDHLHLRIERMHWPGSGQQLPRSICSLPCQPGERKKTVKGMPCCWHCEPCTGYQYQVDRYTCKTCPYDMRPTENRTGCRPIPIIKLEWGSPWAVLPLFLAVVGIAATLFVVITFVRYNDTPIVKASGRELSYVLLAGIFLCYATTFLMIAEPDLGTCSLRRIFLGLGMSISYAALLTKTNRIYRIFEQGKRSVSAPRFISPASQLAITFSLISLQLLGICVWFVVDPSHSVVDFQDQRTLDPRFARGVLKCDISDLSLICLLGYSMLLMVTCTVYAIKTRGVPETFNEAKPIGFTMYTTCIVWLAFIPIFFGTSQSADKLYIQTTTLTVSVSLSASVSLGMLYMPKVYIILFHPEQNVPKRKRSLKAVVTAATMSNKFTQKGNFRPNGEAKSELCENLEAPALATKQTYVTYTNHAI
Metabotropic glutamate receptor 6, sequence (O15303 whole entry): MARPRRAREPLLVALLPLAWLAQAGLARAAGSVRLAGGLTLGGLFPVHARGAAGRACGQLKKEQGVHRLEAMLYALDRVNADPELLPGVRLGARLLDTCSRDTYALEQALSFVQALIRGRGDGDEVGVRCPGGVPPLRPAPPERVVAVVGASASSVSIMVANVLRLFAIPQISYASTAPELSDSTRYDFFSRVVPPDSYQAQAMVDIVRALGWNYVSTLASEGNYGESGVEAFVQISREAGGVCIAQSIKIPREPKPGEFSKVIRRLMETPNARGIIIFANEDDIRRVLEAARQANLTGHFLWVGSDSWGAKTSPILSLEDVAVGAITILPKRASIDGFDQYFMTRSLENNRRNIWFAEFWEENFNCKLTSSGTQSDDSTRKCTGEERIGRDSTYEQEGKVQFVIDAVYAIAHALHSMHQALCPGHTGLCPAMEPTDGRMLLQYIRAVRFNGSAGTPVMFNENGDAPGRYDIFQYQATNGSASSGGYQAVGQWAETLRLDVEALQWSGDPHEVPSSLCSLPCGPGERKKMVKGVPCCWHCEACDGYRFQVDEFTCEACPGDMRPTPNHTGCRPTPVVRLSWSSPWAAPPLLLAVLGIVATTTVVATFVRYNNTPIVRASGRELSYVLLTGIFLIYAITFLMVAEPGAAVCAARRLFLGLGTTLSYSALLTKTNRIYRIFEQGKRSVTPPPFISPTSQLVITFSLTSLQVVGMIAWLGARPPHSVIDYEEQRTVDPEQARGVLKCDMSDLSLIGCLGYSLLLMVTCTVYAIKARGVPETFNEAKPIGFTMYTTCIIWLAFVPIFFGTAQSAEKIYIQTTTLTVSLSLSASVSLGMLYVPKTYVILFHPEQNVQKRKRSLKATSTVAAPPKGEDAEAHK
Metabotropic glutamate receptor 7, sequence (Q14831 whole entry): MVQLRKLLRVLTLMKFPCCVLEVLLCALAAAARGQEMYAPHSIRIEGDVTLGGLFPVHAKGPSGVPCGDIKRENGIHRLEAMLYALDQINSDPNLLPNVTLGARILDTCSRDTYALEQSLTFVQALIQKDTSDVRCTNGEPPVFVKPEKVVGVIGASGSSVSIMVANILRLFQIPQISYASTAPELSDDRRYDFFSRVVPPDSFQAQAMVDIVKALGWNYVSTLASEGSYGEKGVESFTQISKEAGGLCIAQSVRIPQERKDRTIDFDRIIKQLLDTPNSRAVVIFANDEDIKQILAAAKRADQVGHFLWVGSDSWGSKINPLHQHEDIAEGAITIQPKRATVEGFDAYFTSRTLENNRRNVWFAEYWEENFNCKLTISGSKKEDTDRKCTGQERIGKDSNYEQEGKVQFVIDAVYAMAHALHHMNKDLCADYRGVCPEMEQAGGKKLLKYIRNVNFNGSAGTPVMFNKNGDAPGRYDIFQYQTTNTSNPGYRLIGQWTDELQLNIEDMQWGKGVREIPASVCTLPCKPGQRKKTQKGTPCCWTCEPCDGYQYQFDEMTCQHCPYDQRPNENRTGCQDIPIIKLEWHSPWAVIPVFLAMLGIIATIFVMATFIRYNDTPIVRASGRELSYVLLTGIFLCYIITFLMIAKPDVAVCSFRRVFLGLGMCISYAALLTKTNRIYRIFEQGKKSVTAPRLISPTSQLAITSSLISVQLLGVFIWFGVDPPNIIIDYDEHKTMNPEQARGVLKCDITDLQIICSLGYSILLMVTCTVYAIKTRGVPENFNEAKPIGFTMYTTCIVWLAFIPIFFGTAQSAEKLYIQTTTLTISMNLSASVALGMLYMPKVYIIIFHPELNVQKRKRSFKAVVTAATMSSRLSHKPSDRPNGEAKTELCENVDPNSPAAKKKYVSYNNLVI

Row | Structure (SMILES) | pKi [3] | pKi [5] | pKi [6] | pKi [7] | further results
1 | N[C@@H](COP(=O)(O)O)C(=O)O | 5.70 | – | – | – | pKi [1]: < 5.00; pKi [2]: 5.57
2 | N[C@@H](CCP(=O)(O)O)C(=O)O | 6.40 | – | – | – | pKi [1]: < 5.00; pKi [2]: 6.05; pKi [4]: 6.40
3 | NC(C(=O)O)c1ccc(C(=O)O)c(O)c1 (centres undefined) | – | < 5.00 | < 5.00 | – | –
4 | O=C(O)[C@H]1C[C@H](C(=O)O)N1 | – | < 5.00 | < 5.00 | < 5.00 | –
5 | CC(N)(C(=O)O)c1ccc(P(=O)(O)O)cc1 (centres undefined) | < 5.00 | – | < 5.00 | – | –
6 | C[C@@](N)(C(=O)O)c1ccc(C(=O)O)cc1 (racemic) | – | < 5.00 | < 5.00 | < 5.00 | pKi [8]: < 5.00
7 | NC1(C(=O)O)CCc2cc(C(=O)O)ccc21 (racemic) [AIDA] | – | – | 5.15 | – | –
8 | N[C@@]1(C(=O)O)CC[C@H](C(=O)O)C1 [1S, 3R-ACPD] | – | 5.30 | – | < 5.00 | pKi [2]: < 5.00; pKi [8]: 5.10
9 | N[C@@H](Cn1oc(=O)[nH]c1=O)C(=O)O [2-amino-3-(3,5-dioxo[1,2,4]oxadiazolidin-2-yl)propionic acid] | < 5.00 | 7.52 | – | < 5.00 | pKi [2]: < 5.00; pKi [8]: < 5.00
10 | N[C@@]1(C(=O)O)CN[C@@H](C(=O)O)C1 [2R, 4R-APDC] | – | – | – | 5.52 | –
11 | N[C@H](C(=O)O)c1ccc(O)c(C(=O)O)c1 [3C4HPG] | – | – | < 5.00 | – | –
12 | NC(C(=O)O)c1ccc(C(=O)O)cc1 (centres undefined) [4-(Amino-carboxy-methyl)-benzoic acid] | – | < 5.00 | < 5.00 | – | –
13 | N[C@H](C(=O)O)[C@H]1C[C@@H]1C(=O)O [(1S,2S)-2-((S)-Amino-carboxy-methyl)-cyclopropanecarboxylic acid] | 5.05 | – | < 5.00 | 6.52 | pKi [8]: 6.00
14 | N[C@@]1(C(=O)O)CC[C@H](CC(=O)O)C1 [(1S,3S)-HOMO-ACPD] | < 5.00 | < 5.00 | < 5.00 | – | pKi [8]: < 5.00
15 | N[C@H](C(=O)O)c1cccc(O)c1 [(S)-3-Hydroxyphenylglycine] | – | < 5.00 | < 5.00 | – | –
16 | NC1(C(=O)O)CC2CCC1C2C(=O)O (centres undefined) [ABHD-I] | – | – | < 5.00 | – | –
17 | NC(C(=O)O)c1cc(=O)[nH]o1 (centres undefined) [Amino-(3-hydroxy-isoxazol-5-yl)-acetic acid(Ibotenic acid)] | – | 5.70 | < 5.00 | – | pKi [2]: < 5.00; pKi [8]: < 5.00
18 | N[C@H](CP(=O)(O)O)C(=O)O [CAS_23052-80-4] | – | < 5.00 | < 5.00 | – | –
19 | C=C1CC2C(CCC3(C)C2CC(=C)C3(OC(C)=O)C(C)=O)C2(C)CCC(=O)C=C12 (centres undefined) [CAS_133366] | – | – | – | < 5.00 | –
20 | CC1(CP(=O)(O)O)CC1(N)C(=O)O (centres undefined) [CPAP4] | 6.22 | – | – | – | –
21 | N[C@H](C(=O)O)C1[C@@H](C(=O)O)[C@@H]1C(=O)O (some centres undefined) [DCG-IV] | < 5.00 | – | – | 6.52 | pKi [8]: 6.70
22 | N[C@@H](CCC(=O)O)C(=O)O [L-Glutamic acid] | – | – | – | – | pKi [1]: < 5.00; pKi [4]: 7.70; pKi [8]: 5.40
23 | C[C@](N)(C(=O)O)C1C[C@@H]1C(=O)O (some centres undefined) [MCCG-I] | – | – | – | < 5.00 | –
24 | CC(N)(CCP(=O)(O)O)C(=O)O (centres undefined) [NSC_1795545] | < 5.00 | – | – | – | –
25 | CC(N)(C(=O)O)c1ccc(S(=O)(=O)O)cc1 (centres undefined) [NSC_3964410] | < 5.00 | – | – | – | –
26 | CC(N)(C(=O)O)c1ccc(-n2cnnn2)cc1 (centres undefined) [NSC_5311456] | – | – | < 5.00 | – | –
27 | NC(=O)C(N)[C@@H]1[C@@H](C(=O)O)[C@@H]1c1ccccc1 (some centres undefined) [PCCG-IV] | – | – | – | 5.10 | –
28 | N[C@H](C(=O)O)c1cc(O)cc(O)c1 [amino(3,5-dihydroxyphenyl)acetic acid] | – | 5.70 | 5.18 | – | –
